The values below come from ChEMBL document CHEMBL1201862, “PubChem BioAssay data set” (2004).

Molecules are shown by their SMILES. The source made the active and inactive calls.

The target in assay [1] is Lysine-specific demethylase 4C (Homo sapiens, UniProt Q9H3R0). Description: inhibition of JMJD2C H3K9me3 demethylation – biochemical, DELFIA europium, cherry-picked samples, dose response (AID 488835). Format: functional.
In assay [2] the target is T1, Voltage-gated N-type calcium channel alpha-1B subunit/Amyloid beta A4 precursor protein-binding family A member 1 (Homo sapiens, UniProt Q00975+Q02410). Format: protein assay.
The test system of the next assay is Salmon testes DNA. Description: acridine orange-DNA binding displacement – biochemical, fluorescence polarization, cherry-picked samples, set 2, artefact control for KSHV LANA DNA-binding inhibitor project, dose response (AID 504727). On the set-up: species or system Salmonidae.
The target in assay [3] is T2, Bifunctional protein GlmU (Mycobacterium tuberculosis, UniProt P9WMN3).
T2 sequence (P9WMN3 whole entry): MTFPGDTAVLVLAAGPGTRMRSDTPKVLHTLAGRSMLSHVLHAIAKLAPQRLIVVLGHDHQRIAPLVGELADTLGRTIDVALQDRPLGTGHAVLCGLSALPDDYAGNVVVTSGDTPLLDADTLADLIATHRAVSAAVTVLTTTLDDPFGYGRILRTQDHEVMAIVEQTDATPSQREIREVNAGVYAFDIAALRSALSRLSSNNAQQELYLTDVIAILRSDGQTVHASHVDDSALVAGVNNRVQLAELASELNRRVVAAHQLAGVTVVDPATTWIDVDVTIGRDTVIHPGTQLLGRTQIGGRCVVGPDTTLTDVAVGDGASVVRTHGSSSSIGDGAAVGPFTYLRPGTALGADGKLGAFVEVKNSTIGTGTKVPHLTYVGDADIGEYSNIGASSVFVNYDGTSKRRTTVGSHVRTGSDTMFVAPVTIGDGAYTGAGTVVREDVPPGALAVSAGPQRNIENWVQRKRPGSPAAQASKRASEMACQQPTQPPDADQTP
The experiment in a line: Inhibitors of Mycobacterial Glucosamine-1-phosphate acetyl transferase (GlmU). Secondary screen. On the set-up: species or system Mycobacterium tuberculosis H37Rv.

For the next assay, the target named is Troponin, cardiac muscle (Homo sapiens, UniProt P19429+P45379+P63316). The experiment in a line: compounds desensitizing RTF to calcium – biochemical, fluorescence, cardiac regulated thin filaments, triplicate IC50, dose response (AID 504742). In kind it is protein-complex assay.
The target of a further assay is Large T antigen (Simian virus 40, UniProt P03070). Format: functional, Betapolyomavirus macacae.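 Also: Confirmatory-stage PubChem screen for compounds that inhibit SV40 T antigen.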
Assay [4] addresses T1, Voltage-gated N-type calcium channel alpha-1B subunit/Amyloid beta A4 precursor protein-binding family A member 1. Format: protein assay. This is another data set of the same source.
The target in assay [5] is T3, Alkaline phosphatase, tissue-nonspecific isozyme (Homo sapiens, UniProt P05186).
T3 sequence (P05186 whole entry): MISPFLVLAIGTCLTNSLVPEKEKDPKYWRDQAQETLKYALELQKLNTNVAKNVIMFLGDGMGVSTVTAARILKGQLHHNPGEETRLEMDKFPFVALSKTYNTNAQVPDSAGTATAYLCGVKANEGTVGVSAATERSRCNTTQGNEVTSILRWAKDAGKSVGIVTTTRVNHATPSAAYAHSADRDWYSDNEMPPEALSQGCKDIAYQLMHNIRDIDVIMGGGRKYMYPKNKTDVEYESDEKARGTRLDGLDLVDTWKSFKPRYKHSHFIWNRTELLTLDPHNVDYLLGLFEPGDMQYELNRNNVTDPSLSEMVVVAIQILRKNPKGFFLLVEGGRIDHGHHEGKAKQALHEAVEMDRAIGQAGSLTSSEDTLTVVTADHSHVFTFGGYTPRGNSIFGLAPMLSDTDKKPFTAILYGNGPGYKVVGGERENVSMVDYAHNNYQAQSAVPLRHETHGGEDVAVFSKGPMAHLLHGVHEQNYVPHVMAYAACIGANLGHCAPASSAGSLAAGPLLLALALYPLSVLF
The experiment in a line: TNAP enzyme inhibition by screening hits, dose response, selectivity assay for mouse IAP inhibitor project, biochemical, human TNAP, uHTS hits (AID 488906). Format: functional.

The next assay addresses T4, Aspartyl aminopeptidase (Plasmodium falciparum 3D7, UniProt Q8I2J3).
T4 sequence (Q8I2J3 whole entry): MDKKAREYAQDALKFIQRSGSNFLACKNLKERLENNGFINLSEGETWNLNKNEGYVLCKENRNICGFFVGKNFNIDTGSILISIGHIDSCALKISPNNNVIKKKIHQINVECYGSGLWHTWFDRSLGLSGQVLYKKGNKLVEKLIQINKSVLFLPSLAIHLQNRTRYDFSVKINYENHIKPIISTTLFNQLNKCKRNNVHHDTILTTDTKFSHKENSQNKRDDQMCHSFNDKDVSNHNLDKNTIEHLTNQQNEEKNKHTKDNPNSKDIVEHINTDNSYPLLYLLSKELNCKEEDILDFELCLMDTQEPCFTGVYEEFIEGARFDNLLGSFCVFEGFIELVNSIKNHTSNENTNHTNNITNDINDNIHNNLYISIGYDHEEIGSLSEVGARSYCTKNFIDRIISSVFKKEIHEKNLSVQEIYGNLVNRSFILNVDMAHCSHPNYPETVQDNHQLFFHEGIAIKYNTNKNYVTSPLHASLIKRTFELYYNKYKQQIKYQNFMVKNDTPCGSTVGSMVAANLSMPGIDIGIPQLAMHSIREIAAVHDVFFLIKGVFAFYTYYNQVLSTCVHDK

The target of a further assay is T5, Protein Tat (Human immunodeficiency virus type 1 group M subtype B (isolate HXB2)(HIV-1), UniProt P04608).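 Also: tat binding to TAR RNA read out by fluorescence polarization.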
T5 sequence (P04608 whole entry): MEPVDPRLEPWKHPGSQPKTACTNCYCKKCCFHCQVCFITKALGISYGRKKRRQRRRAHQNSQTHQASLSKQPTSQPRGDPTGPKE
Format: functional.

For assay [6], the target named is T6, Polyadenylate-binding protein 1 (Homo sapiens, UniProt P11940). Description: MLLE binding blockers, Cy5 peptide tracer – biochemical, fluorescence polarization, Cy5-PAM2 peptide, secondary, miRNA deadenylation inhibitor project, dose response (AID 602260). In kind it is functional. As to conditions: read-out: IC50_Mean.
Assay [7] in a line: toxicity toward HepG2 liver cells – cell-based, plate reader, cherry-pick, antagonist series, cytotoxicity control, dose response (AID 743416). Format: functional.
For assay [8], the target named is T6, Polyadenylate-binding protein 1. The experiment in a line: MLLE domain peptide-binding blockers, IC50 – biochemical, fluorescence polarization, FITC-PAM2 peptide, dose response (AID 602259). Format: functional. The settings on record: read-out: IC50_Mean.
For assay [9], the target named is Histone-lysine N-methyltransferase NSD2 (Homo sapiens, UniProt O96028). In kind it is biochemical.
Assay [10] in a line: A549 cell cytotoxicity, dose response, cytotoxicity control, plate reader, cherry-pick, antagonist series (AID 743412). Format: functional, cell-based.
In assay [11] the target is Glutathione-S-transferase (Schistosoma japonicum, UniProt Q26513). Description: GST-antibody interaction or FRET quenching – biochemical, TR-FRET, artefact control for Vif-APOBEC3G degradation inhibitor project, dose response (AID 1117362). In kind it is functional.
Another assay concerns the target Procathepsin L (Homo sapiens, UniProt P07711).

T1 sequence (Q00975 whole entry): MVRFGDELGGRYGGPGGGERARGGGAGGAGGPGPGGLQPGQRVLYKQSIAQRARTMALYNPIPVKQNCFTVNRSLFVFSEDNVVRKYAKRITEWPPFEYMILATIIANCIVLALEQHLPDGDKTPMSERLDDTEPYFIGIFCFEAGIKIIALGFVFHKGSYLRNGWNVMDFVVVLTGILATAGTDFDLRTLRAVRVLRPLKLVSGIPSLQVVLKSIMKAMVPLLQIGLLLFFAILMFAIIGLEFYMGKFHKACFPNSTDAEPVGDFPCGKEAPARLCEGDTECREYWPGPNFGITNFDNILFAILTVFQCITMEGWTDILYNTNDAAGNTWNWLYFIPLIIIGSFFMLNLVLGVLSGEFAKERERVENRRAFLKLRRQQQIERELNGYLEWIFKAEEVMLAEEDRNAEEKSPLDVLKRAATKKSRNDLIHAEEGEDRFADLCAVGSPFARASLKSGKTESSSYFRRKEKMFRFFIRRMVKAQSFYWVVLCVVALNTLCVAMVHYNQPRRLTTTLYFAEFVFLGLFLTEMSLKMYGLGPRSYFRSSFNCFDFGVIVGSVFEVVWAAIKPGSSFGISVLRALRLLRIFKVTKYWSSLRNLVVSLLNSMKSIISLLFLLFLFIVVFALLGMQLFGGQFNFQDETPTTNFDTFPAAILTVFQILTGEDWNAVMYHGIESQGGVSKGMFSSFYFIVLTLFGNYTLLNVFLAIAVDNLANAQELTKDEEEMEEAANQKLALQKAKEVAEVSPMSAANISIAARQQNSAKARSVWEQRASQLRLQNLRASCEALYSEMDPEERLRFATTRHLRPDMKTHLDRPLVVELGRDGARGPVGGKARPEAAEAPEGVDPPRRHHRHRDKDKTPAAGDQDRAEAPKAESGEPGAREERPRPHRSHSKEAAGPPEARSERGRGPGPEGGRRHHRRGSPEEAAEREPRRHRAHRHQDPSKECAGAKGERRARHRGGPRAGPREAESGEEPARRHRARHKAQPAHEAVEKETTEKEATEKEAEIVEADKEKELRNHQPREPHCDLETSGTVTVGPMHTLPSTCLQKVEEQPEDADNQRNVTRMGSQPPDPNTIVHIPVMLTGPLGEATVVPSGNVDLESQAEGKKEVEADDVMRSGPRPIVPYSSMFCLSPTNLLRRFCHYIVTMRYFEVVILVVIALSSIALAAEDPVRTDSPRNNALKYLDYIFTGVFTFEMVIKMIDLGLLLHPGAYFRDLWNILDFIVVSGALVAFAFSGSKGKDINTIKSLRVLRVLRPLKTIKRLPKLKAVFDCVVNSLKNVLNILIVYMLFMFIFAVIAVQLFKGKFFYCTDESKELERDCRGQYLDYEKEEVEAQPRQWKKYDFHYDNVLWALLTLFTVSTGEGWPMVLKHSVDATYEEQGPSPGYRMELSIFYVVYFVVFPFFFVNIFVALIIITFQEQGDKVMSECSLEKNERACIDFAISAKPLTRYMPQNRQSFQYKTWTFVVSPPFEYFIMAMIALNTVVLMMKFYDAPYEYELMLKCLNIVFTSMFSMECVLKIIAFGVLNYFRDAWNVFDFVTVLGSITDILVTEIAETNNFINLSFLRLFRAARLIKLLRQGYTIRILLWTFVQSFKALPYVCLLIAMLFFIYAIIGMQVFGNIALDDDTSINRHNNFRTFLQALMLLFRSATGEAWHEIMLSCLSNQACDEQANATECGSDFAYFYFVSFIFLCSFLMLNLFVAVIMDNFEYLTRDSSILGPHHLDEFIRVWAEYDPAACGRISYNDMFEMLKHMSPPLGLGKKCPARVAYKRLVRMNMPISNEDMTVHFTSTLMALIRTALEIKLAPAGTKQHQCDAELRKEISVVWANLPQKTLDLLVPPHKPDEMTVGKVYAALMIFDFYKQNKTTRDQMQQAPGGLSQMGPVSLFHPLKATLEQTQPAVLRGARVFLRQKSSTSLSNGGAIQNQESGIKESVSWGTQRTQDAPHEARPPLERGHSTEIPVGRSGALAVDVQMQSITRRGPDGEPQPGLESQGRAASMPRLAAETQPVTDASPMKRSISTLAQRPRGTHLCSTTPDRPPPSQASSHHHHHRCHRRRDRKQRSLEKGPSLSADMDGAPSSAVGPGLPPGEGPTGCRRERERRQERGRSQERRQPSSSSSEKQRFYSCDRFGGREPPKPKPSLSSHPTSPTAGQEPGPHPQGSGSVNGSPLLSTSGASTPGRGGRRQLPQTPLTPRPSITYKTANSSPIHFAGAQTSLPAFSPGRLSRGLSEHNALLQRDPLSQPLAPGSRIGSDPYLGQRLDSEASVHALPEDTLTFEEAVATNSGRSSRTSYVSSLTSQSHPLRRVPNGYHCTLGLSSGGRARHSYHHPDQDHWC
T1 sequence (Q02410 whole entry): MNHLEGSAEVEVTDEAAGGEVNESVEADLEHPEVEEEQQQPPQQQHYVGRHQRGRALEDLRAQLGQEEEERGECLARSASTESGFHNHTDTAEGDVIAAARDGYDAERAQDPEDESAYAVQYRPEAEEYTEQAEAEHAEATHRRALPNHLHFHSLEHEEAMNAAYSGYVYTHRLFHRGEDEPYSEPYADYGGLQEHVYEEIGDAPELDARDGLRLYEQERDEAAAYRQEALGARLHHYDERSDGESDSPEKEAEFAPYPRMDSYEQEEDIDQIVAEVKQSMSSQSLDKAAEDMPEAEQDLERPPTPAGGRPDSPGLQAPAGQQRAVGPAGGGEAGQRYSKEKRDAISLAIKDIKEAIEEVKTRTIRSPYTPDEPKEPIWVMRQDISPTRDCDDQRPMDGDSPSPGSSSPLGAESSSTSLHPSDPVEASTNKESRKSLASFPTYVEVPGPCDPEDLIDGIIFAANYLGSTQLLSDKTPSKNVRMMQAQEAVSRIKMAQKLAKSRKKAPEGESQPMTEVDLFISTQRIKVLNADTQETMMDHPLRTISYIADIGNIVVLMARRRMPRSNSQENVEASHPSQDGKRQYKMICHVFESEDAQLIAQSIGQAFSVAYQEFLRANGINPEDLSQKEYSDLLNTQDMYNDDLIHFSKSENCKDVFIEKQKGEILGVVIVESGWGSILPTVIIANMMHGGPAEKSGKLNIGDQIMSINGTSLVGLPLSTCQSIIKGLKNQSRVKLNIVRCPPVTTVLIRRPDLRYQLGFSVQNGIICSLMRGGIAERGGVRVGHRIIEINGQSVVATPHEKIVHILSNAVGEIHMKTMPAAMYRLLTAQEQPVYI
T6 sequence (P11940 whole entry): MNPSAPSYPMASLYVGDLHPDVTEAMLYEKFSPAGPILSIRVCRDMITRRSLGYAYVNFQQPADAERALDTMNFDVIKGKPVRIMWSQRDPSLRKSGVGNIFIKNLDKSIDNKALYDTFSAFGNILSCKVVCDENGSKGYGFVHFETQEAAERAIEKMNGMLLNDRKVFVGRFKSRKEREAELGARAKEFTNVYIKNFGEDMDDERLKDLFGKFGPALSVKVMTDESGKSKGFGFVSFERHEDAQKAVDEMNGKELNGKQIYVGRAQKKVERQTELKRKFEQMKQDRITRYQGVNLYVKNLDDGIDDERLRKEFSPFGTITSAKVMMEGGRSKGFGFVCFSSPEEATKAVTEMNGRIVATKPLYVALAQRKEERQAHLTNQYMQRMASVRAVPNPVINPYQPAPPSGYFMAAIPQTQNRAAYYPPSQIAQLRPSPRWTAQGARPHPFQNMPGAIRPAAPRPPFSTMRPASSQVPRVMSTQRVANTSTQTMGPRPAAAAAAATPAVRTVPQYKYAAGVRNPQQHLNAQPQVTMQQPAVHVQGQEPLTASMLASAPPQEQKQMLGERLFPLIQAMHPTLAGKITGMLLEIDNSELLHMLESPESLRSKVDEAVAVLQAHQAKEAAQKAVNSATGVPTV
Chain of Glutathione-S-transferase (Q26513 whole entry): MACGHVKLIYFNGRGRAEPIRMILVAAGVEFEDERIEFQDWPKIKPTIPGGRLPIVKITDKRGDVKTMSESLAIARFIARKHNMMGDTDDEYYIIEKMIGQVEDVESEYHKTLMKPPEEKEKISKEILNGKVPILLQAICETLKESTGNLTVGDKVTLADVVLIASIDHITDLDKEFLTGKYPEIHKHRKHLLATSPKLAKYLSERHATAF
Chain of Lysine-specific demethylase 4C (Q9H3R0 whole entry): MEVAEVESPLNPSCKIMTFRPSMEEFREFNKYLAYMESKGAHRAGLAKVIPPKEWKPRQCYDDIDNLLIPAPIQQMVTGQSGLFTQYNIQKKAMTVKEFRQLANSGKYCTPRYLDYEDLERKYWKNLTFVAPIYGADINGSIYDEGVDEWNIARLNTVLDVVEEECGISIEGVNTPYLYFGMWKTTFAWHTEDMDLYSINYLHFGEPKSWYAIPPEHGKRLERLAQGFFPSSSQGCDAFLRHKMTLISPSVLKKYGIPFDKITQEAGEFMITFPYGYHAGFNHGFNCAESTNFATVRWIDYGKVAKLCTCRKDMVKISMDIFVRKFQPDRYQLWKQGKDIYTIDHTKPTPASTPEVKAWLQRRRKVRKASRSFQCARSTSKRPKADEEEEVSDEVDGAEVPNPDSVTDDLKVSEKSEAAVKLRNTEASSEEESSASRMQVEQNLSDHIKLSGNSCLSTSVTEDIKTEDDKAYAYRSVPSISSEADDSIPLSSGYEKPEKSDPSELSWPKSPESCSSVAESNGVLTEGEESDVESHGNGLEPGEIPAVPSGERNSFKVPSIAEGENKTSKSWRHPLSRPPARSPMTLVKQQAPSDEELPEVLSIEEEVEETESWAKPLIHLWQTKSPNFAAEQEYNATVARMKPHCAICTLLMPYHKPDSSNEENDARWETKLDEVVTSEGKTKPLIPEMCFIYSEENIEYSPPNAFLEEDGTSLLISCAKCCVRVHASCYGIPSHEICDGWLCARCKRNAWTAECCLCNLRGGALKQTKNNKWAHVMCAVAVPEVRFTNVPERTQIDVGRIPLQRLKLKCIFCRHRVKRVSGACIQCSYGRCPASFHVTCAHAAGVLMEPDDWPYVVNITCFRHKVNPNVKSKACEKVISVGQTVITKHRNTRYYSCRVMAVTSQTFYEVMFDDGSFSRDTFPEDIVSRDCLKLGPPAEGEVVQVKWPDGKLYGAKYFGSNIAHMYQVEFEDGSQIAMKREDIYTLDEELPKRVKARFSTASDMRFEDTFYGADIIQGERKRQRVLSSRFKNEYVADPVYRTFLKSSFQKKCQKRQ

For `Cc1cc(C)c(S(=O)(=O)Nc2cc(SCC(=O)O)c(O)c3ccccc23)cc1C`, the AC50 in [1] was 13 µM (active).
Take `O=C(O)c1cc(N2N=C(C(F)(F)F)/C(=C/C=C/c3ccco3)C2=O)ccc1Cl`: the IC50 was 11.7 µM (active) in [2]; 94.3 µM (active) in assay [3]; > 2.65 µM (active) at Troponin, cardiac muscle; 4.47 µM (active) at Large T antigen; 24.6 µM (active) in [4]. Moreover, the AC50 in the assay with Salmon testes DNA was 126 µM (active).
In the case of `O=C(/C=C/c1ccco1)NC(=S)Nc1cccc(C(=O)O)c1`, in assay [5], the IC50 is 76.1 µM (active).
Take `CNCc1ccccc1Sc1ccc(O)c(O)c1`: the IC50 was 1.89 µM (active) on Aspartyl aminopeptidase; > 100 µM (active) on Protein Tat; > 66 µM (inactive) in [6]; > 66 µM (inactive) in assay [8]; 16 µM (active) in assay [11]; > 59.6 µM (not active) against Procathepsin L. Further, the values for the AC50 in assay [7], in assay [9] and in [10] were > 52 µM (inactive), > 20 µM (inactive) and > 52 µM (inactive), respectively.
